# According to PMC9330922, “Genomewide Analysis and Biological Characterization of Cathelicidins with Potent Antimicrobial Activity and Low Cytotoxicity from Three Bat Species” (Antibiotics, 2022):
# No end group written: not given here.
# Assays:
# [1] = test system: panel of 12 reference bacteria, comprised of 6 Gram-negative strains and 6 Gram-positive strains; format: cell-based; conditions: 6 h
# Procedure: The antibacterial activities of the chemically synthesized peptides were evaluated against a panel of bacteria consisting of 6 Gram-negative strains, including E. coli ATCC 25922 (American Type Culture Collection, Manassas, VA, USA), P. aeruginosa ATCC 27853, S. Typhimurium ATCC 14028, A. baumannii KCTC (Korean Collection for Type Cultures, Jeongeup, Korea) 23254, K. pneumoniae KCTC 1726, and E. cloacae ATCC 13047, and 6 Gram-positive strains, including S. aureus ATCC 6538, B. cereus ATCC 10876, E. faecalis ATCC 29212, S. agalactiae ATCC 27956, S. dysgalactiae ATCC 27957, and S. equi ATCC 43079. Ampicillin (Sigma-Aldrich, St. Louis, MO, USA), chloramphenicol (Sigma-Aldrich), and gentamicin sulfate (Sigma-Aldrich) were used as controls for antibacterial activity. The MIC was determined by a colorimetric method using the Microbial Viability Assay Kit-WST (Dojindo, Kumamoto, Japan) according to the manufacturer’s manual and the Clinical and Laboratory Standards Institute (CLSI) guidelines (2018). Four colonies of each bacterium were inoculated into 5 mL of Luria-Bertani (LB) broth medium (BD Bioscience, Franklin Lakes, NJ, USA) or brain heart infusion broth (BHIB; BD Bioscience) at 37 °C for 6 h with shaking at 220 rpm. E. faecalis and streptococci were cultured in BHIB because of their slow growth, whereas all other bacteria were cultured in LB medium. The cells were washed by sterile saline (0.9% NaCl) twice and adjusted in a single well of a 96-well plate at a cell density of 1.5 × 10^5 CFU/well in accordance with 0.5 McFarland standard. Subsequently, 180 µL/well of fresh Mueller-Hinton broth (MHB; BD Bioscience), except for E. faecalis and streptococci using BHIB was added to the plate using BHIB. Final concentrations of 1–40 µg/mL (0.3–19.3 μM) of each peptide and reference antibiotic were added to each well. The plates were then incubated at 37 °C for 6 h. Subsequently, 10 µL of the coloring reagent was added, and the mixture was incubated at 37 °C for 2 h. The absorbance of each well was measured at 450 nm using a microplate spectrophotometer (Bio-Rad, xMark spectrophotometer, Hercules, CA, USA). MIC values were determined when the difference in the absorbance values between treatments and blanks (media and coloring reagent only) was less than 0.05. Experiments were performed in triplicate.
# HaCaT cells = experiment: In vitro cytotoxicity assay, WST-1 cell viability; format: cell-based, Human
# Procedure: HaCaT cells were cultured in Dulbecco’s modified Eagle’s medium (DMEM; Hyclone^TM, Logan, UT, USA) with 10% fetal bovine serum (FBS; Hyclone^TM) and 1% penicillin/streptomycin (Pen-Strep; Hyclone^TM) up to 80% confluence at 37 ℃ and 5% CO2. Cells were detached from the plate by adding 0.25% trypsin-EDTA solution (Gibco^TM; Carlsbad, CA, USA). In a 96-well plate, 2 × 10^4 cells were seeded per well and cultured for 24 h. Subsequently, the medium was replaced with 100 μL DMEM (Hyclone^TM) containing 10% heat-inactivated FBS. Peptides were added to each well at concentrations of 64 μg/mL and 160 μg/mL. As references for complete cell lysis, 64 μg/mL melittin (Sigma-Aldrich) and Triton X-100 (Sigma-Aldrich) were used. Untreated cells were used as negative controls. After 24 h incubation at 37 ℃ and 5 % CO2, 10 μL of coloring solution (Cell Proliferation Reagent WST-1^TM; Sigma Aldrich) was added to each well according to the manufacturer’s instructions. The absorbance at 450 nm (treated group and control) and 650 nm (background) was measured in each well using a microplate reader (xMarkTM spectrophotometer; Bio-Rad). The cell viability was calculated using the following equation. All experiments were performed in triplicate. Cell viability (%) = 100 × (OD (treated group) − OD(Background))/(OD (negative control) − OD (Background))(2)
substance,measurement,setting,value
LLRRGGRKIGQGLERIGQRIQGF [ΔHA-CATH],MIC (no observable antibacterial activity),[1],> 13.7 µM
Triton X-100,Cell Viability ± SD,HaCaT cells,8.9 ± 0.05 %
ILGRLRDLLRRGGRKIGQGLERIGQRIQGFFSNREPMEES [HA-CATH],"MIC, range over strains",[1],1.1 to 7.3 µM
LNPLIKAGIFILKHRRPIGRGIEITGRGIKKFFSK [ML-CATH],"MIC, range over strains",[1],0.3 to 8.8 µM
same,"MICs, range",[1],0.5 to 0.8 µM
GIFILKHRRPIGRGIEIT [ΔML-CATH],MIC (no observable antibacterial activity),[1],> 13.7 µM
